Drawing on patent US20250236608A1, “EGFR INHIBITORS” (Blueprint Medicines Corporation, priority 2022, published 2025), this text covers IC50 for 18 compounds.

Experiment [1] deals with EGFR (d746-750) (Homo sapiens (Human), UniProt P00533, DEL746-750). Nature of the experiment: Biochemical EGFR inhibition assay, EGFR (d746-750). Conditions: Caliper mobility shift; 1.0 mM ATP or ATP Km; read-out: Enz EGFR_Exon19-del746-750 IC50.
Experiment [2] addresses pEGFR (Tyr1068) in PC-9 cells (Ex19Del) (Homo sapiens (Human), UniProt P00533, DEL746-750). Nature of the experiment: PC-9 pEGFR AlphaLISA assay. The format is cell-based. The settings on record: 4 hours incubation, p-EGFR (Tyr1068) AlphaLISA, read-out: Ext pEGFR_PC-9 Ex19Del IC50. The procedure, abridged:
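Readout: AlphaLISA SureFire Ultra signal in cell lysates, with acceptor beads for 1.5-2 h and donor beads overnight at room temperature in the dark. Beforehand, unstimulated cells in 10% FBS medium received compounds (10 points, 4-fold steps) for 4 h at 37° C. IC50 came from percent inhibition curves.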

The target of experiment [3] is EGFR L858R (Homo sapiens (Human), UniProt P00533, L858R). Nature of the experiment: Biochemical EGFR inhibition assay, EGFR L858R. Conditions: Caliper mobility shift; 1.0 mM ATP or ATP Km; read-out: Enz EGFR_L858R IC50.
EGFR L858R, sequence (P00533 25-1210 L858R): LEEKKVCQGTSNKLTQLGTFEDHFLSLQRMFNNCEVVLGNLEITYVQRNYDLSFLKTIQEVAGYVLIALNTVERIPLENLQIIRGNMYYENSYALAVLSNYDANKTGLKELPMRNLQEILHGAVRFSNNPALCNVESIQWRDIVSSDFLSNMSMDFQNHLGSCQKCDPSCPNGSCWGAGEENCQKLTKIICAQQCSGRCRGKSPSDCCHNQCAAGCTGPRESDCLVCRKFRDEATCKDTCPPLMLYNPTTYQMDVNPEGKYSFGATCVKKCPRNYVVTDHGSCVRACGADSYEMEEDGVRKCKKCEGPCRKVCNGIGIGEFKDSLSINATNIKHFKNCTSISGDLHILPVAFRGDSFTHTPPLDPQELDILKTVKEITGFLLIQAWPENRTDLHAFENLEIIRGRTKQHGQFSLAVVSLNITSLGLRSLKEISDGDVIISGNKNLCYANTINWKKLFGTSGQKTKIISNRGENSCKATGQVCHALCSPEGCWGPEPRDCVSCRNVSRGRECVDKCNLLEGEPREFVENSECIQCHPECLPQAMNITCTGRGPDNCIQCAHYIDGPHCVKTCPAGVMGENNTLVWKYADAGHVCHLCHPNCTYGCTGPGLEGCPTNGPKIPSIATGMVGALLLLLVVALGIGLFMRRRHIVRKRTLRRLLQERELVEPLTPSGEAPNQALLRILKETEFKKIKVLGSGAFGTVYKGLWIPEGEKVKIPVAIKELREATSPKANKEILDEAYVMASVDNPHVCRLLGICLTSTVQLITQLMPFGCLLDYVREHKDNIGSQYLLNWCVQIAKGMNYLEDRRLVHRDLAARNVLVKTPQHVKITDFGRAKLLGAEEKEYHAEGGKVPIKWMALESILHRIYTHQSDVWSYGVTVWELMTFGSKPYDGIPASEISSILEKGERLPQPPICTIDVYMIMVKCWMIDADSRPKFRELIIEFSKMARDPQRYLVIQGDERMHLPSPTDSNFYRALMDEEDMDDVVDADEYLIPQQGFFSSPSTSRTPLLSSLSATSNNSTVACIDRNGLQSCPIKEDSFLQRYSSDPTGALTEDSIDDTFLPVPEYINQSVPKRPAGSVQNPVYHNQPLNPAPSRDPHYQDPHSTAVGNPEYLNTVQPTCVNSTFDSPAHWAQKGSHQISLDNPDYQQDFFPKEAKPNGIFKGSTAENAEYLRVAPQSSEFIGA

EGFR (d746-750), sequence (P00533 other isoform, or with tags, fused parts or gaps del 1-694/del 746-750 limits assumed): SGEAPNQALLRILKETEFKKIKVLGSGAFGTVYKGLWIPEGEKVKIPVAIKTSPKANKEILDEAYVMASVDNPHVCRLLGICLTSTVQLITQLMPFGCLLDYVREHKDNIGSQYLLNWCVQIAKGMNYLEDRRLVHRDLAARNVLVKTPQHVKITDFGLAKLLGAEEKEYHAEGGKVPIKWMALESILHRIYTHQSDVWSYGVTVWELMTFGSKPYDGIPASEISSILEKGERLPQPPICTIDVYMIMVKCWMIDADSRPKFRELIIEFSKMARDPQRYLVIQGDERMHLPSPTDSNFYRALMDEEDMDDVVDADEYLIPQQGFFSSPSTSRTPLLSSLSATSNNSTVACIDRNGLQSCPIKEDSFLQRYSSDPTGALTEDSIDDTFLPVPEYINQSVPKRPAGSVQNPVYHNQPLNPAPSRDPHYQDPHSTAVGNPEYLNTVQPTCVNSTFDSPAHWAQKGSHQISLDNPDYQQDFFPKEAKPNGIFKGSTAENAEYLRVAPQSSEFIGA
pEGFR (Tyr1068) in PC-9 cells (Ex19Del), sequence (P00533 other isoform, or with tags, fused parts or gaps del 746-750): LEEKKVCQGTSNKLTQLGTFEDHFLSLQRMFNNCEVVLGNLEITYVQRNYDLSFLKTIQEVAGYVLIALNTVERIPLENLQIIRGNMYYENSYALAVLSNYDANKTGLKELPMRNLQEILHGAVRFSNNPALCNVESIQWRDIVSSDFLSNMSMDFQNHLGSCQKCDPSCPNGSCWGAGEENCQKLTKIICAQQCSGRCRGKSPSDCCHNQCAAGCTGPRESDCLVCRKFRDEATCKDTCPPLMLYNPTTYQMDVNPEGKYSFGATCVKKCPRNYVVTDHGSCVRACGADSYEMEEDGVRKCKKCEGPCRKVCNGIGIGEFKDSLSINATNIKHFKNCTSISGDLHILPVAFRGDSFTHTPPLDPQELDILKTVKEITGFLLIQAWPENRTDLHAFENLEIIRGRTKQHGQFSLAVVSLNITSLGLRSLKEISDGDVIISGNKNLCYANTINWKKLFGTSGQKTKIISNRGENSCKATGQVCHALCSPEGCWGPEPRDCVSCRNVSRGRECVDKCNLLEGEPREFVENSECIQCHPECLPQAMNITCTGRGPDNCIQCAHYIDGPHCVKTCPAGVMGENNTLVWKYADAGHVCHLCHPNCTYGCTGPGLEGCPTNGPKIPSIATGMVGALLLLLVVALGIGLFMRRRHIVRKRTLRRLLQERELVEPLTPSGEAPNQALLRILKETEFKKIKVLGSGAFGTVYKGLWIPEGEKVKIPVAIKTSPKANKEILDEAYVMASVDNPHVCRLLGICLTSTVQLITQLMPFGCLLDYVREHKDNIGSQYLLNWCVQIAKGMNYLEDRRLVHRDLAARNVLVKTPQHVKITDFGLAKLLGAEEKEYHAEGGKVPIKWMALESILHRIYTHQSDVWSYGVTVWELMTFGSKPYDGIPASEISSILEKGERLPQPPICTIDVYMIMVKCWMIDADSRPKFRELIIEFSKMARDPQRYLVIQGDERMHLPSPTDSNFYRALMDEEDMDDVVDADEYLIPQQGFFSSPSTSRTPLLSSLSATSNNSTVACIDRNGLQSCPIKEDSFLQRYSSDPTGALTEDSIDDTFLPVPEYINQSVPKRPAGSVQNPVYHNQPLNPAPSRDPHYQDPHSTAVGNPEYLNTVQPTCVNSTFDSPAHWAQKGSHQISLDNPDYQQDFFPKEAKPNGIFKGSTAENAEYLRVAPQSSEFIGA

As for `CCn1cc(-c2ncnc3cc(-c4cnn(C)c4)ccc23)c(-c2ccccc2)n1` [Example 496], the values for the IC50 in experiment [1], in experiment [2] and in experiment [3] were 0.6 nM, 0.4 nM and 0.7 nM, respectively.

`COc1cc2ncnc(-c3cn(C)nc3-c3ccccc3)c2cc1NC(=O)C1(CN(C)C)CC1` [Example 189, 1-((dimethylamino)methyl)-N-(7-methoxy-4-(1-methyl-3-phenyl-1H-pyrazol-4-yl)quinazolin-6-yl)cyclopropane-1-carboxamide]: the IC50 stood at 1.9 nM in experiment [1], 4.3 nM in experiment [2] and 4 nM in experiment [3].

As for `COc1cc2ncnc(-c3cn(C)nc3-c3ccccc3)c2cc1NC(=O)C1CC1` [Example 344, N-(7-methoxy-4-(1-methyl-3-phenyl-1H-pyrazol-4-yl)quinazolin-6-yl)cyclopropanecarboxamide], the values for the half-inhibitory concentration (IC50) in experiment [1], in experiment [2] and in experiment [3] were 1 nM, 0.8 nM and 1.6 nM, respectively.

`CCOc1cc2ncnc(-c3cn(C)nc3-c3ccccc3F)c2nc1NC(=O)[C@]12C[C@H]1CN(C)C2` (single isomer, unassigned) [Example 401, (1R,5R)—N-(7-ethoxy-4-(3-(2-fluorophenyl)-1-methyl-1H-pyrazol-4-yl)pyrido[3,2-d]pyrimidin-6-yl)-3-methyl-3-azabicyclo[3.1.0]hexane-1-carboxamide or (1S,5S)—N-(7-ethoxy-4-(3-(2-fluorophenyl)-1-methyl-1H-pyrazol-4-yl)pyrido[3,2-d]pyrimidin-6-yl)-3-methyl-3-azabicyclo[3.1.0]hexane-1-carboxamide]: the IC50 in experiment [1] is 1.2 nM; in experiment [2] it was 2.3 nM; in experiment [3], 53 nM.

Turning to `COc1cc2ncnc(-c3cn(C)nc3-c3ccc(Cl)cc3)c2nc1NC(=O)C12CC(N(C)C)(C1)C2` [Example 474, N-{4-[3-(4-chlorophenyl)-1-methyl-1H-pyrazol-4-yl]-7-methoxypyrido[3,2-d]pyrimidin-6-yl}-3-(dimethylamino) bicyclo[1.1.1]pentane-1-carboxamide], the values for the IC50 in experiment [1], in experiment [2] and in experiment [3] were 2 nM, 3.6 nM and 5.6 nM, respectively.

Turning to `COc1cc2ncnc(-c3cn(C)nc3-c3ccccc3)c2cc1OC(=O)N1CCO[C@@H](C)[C@@H]1C` [Example 72, 7-methoxy-4-(1-methyl-3-phenyl-1H-pyrazol-4-yl)quinazolin-6-yl (2S,3S)-2,3-dimethylmorpholine-4-carboxylate], the results for the half-maximal inhibitory concentration (IC50) in experiment [1], in experiment [2] and in experiment [3] were 1.7 nM, 5.1 nM and 3.8 nM, respectively.

Regarding `CCOc1cc2ncnc(-c3cn(C)nc3-c3ccccc3)c2cc1Cn1ncnc1C` [Example 134, 7-ethoxy-6-((5-methyl-1H-1,2,4-triazol-1-yl)methyl)-4-(1-methyl-3-phenyl-1H-pyrazol-4-yl)quinazoline], the results for the IC50 in experiment [1], in experiment [2] and in experiment [3] were 2.1 nM, 11.6 nM and 4 nM, respectively.

In the case of `COCCOc1cc2ncnc(-c3cn(CC(F)F)nc3-c3ccccc3)c2cc1OC` [Example 16, 4-(1-(2,2-difluoroethyl)-3-phenyl-1H-pyrazol-4-yl)-6-methoxy-7-(2-methoxyethoxy)quinazoline], the half-maximal inhibitory concentration (IC50) in experiment [1] was found to be 1.2 nM; in experiment [2] it was 2.1 nM; in experiment [3] it was 1.8 nM.

In the case of `COc1cc2ncnc(-c3cn(C)nc3-c3ccccc3)c2cc1NC(=O)[C@H]1CCCN1C` (single isomer, unassigned) [Example 242, (R)—N-(7-methoxy-4-(1-methyl-3-phenyl-1H-pyrazol-4-yl)quinazolin-6-yl)-1-methylpyrrolidine-2-carboxamide or (S)—N-(7-methoxy-4-(1-methyl-3-phenyl-1H-pyrazol-4-yl)quinazolin-6-yl)-1-methylpyrrolidine-2-carboxamide], the figures for the IC50 in experiment [1], in experiment [2] and in experiment [3] were 2.1 nM, 6.6 nM and 7 nM, respectively.

Regarding `CN(C)CCOc1cc2ncnc(-c3cn(C)nc3-c3ccccc3)c2cc1NC(=O)c1ccccc1F` [Example 300, N-(7-(2-(dimethylamino)ethoxy)-4-(1-methyl-3-phenyl-1H-pyrazol-4-yl)quinazolin-6-yl)-2-fluorobenzamide], the IC50 came out at 1.7 nM in experiment [1], 3.5 nM in experiment [2] and 5 nM in experiment [3].

For `COc1cc2ncnc(-c3cn(C)nc3-c3ccc(F)cc3)c2nc1NC(=O)[C@]12C[C@H]1CN(C)C2` (single isomer, unassigned) [Example 411, (1R,5R)—N-(4-(3-(4-fluorophenyl)-1-methyl-1H-pyrazol-4-yl)-7-methoxypyrido[3,2-d]pyrimidin-6-yl)-3-methyl-3-azabicyclo[3.1.0]hexane-1-carboxamide or (1S,5S)—N-(4-(3-(4-fluorophenyl)-1-methyl-1H-pyrazol-4-yl)-7-methoxypyrido[3,2-d]pyrimidin-6-yl)-3-methyl-3-azabicyclo[3.1.0]hexane-1-carboxamide], the results for the IC50 in experiment [1], in experiment [2] and in experiment [3] were 1.3 nM, 2.3 nM and 2.6 nM, respectively.

For the compound `COc1cc2ncnc(-c3cn(CC(F)F)nc3-c3ccccc3)c2nc1NC(=O)[C@@]12C[C@@H]1CN(C)C2` (single isomer, unassigned) [Example 397, (1R,5R)—N-(4-(1-(2,2-difluoroethyl)-3-phenyl-1H-pyrazol-4-yl)-7-methoxypyrido[3,2-d]pyrimidin-6-yl)-3-methyl-3-azabicyclo[3.1.0]hexane-1-carboxamide or (1S,5S)—N-(4-(1-(2,2-difluoroethyl)-3-phenyl-1H-pyrazol-4-yl)-7-methoxypyrido[3,2-d]pyrimidin-6-yl)-3-methyl-3-azabicyclo[3.1.0]hexane-1-carboxamide], the IC50 is 1 nM in experiment [1], 1.6 nM in experiment [2] and 2.3 nM in experiment [3].

As to `COc1cc2ncnc(-c3cn(C)nc3-c3ccccc3F)c2cc1NC(=O)[C@@]12COC[C@@H]1C2` (single isomer, unassigned) [Example 240, (1R,5R)—N-(4-(3-(2-fluorophenyl)-1-methyl-1H-pyrazol-4-yl)-7-methoxyquinazolin-6-yl)-3-oxabicyclo[3.1.0]hexane-1-carboxamide or (1S,5S)—N-(4-(3-(2-fluorophenyl)-1-methyl-1H-pyrazol-4-yl)-7-methoxyquinazolin-6-yl)-3-oxabicyclo[3.1.0]hexane-1-carboxamide], the IC50 is 0.8 nM in experiment [1], 1.4 nM in experiment [2] and 1.8 nM in experiment [3].

Turning to `COc1cc2ncnc(-c3cn(CC(F)F)nc3-c3ccccc3)c2nc1NC(=O)[C@]12C[C@H]1CN(C)C2` (single isomer, unassigned) [Example 396, (1R,5R)—N-(4-(1-(2,2-difluoroethyl)-3-phenyl-1H-pyrazol-4-yl)-7-methoxypyrido[3,2-d]pyrimidin-6-yl)-3-methyl-3-azabicyclo[3.1.0]hexane-1-carboxamide or (1S,5S)—N-(4-(1-(2,2-difluoroethyl)-3-phenyl-1H-pyrazol-4-yl)-7-methoxypyrido[3,2-d]pyrimidin-6-yl)-3-methyl-3-azabicyclo[3.1.0]hexane-1-carboxamide], the 50% inhibitory concentration (IC50) in experiment [1] was determined as 1.1 nM; in experiment [2], 0.5 nM; in experiment [3], 1.7 nM.

Turning to `CC(C)Oc1cc2ncnc(-c3cn(C)nc3-c3ccccc3)c2cc1OC(=O)N1CCOC[C@H]1C` [Example 71, 7-isopropoxy-4-(1-methyl-3-phenyl-1H-pyrazol-4-yl)quinazolin-6-yl (R)-3-methylmorpholine-4-carboxylate], the IC50 in experiment [1] came to 2.5 nM; in experiment [2], 6.8 nM; in experiment [3] it was 4.5 nM.

Turning to `COc1cc2ncnc(-c3cn(CC4CC4)nc3-c3ccccc3)c2nc1NC(=O)[C@]12C[C@H]1CN(C)C2` (single isomer, unassigned) [Example 409, (1S,5S)—N-(4-(1-(cyclopropylmethyl)-3-phenyl-1H-pyrazol-4-yl)-7-methoxypyrido[3,2-d]pyrimidin-6-yl)-3-methyl-3-azabicyclo[3.1.0]hexane-1-carboxamide or (1R,5R)—N-(4-(1-(cyclopropylmethyl)-3-phenyl-1H-pyrazol-4-yl)-7-methoxypyrido[3,2-d]pyrimidin-6-yl)-3-methyl-3-azabicyclo[3.1.0]hexane-1-carboxamide], the IC50 in experiment [1] amounted to 0.6 nM; in experiment [2], 0.8 nM; in experiment [3] it was 1 nM.

With `COc1cc2ncnc(-c3cn(C)nc3-c3ccccc3)c2nc1NC(=O)c1ccc(F)cc1` [Example 312, 4-fluoro-N-(7-methoxy-4-(1-methyl-3-phenyl-1H-pyrazol-4-yl)pyrido[3,2-d]pyrimidin-6-yl)benzamide], the IC50 worked out at 3.2 nM in experiment [1], 8.8 nM in experiment [2] and 6.9 nM in experiment [3].

On to `COc1cc2ncnc(-c3cn(C)nc3-c3ccccc3)c2cc1NC(=O)C1CCN1` (stereo not drawn) [Example 228, N-(7-methoxy-4-(1-methyl-3-phenyl-1H-pyrazol-4-yl)quinazolin-6-yl)azetidine-2-carboxamide], for which the figures for the 50% inhibitory concentration (IC50) in experiment [1], in experiment [2] and in experiment [3] were 1.7 nM, 5.6 nM and 2.8 nM, respectively.
